Measurements: ChEMBL document CHEMBL5576043, “Synthesis, radiosynthesis and biochemical evaluation of fluorinated analogues of sphingosine-1-phosphate receptor 3 specific antagonists using PET” (Bioorg Med Chem, 2024)

Legend:
[1] = 1-Octanol/PBS partition coefficient, logD of the compound at pH 7.4 incubated for 3 mins; format: physicochemical
[2] = Retention time of compound by radio-HPLC analysis; format: physicochemical
[3] = Drug metabolism in formulated solution assessed as 4-[18F]fluoroaniline metabolite formation by measuring retention time after 180 mins by radio-HPLC analysis; format: ADME; conditions: 3 h
[4] = Drug metabolism in formulated solution assessed as decomposition mediated metabolite formation by measuring retention time after 180 mins by radio-HPLC analysis; format: ADME; conditions: 3 h
[5] = Drug metabolism in mouse serum assessed as decomposition mediated metabolite formation at 37 degreeC measured after 10 to 90 mins by radio-HPLC analysis; format: ADME, cell-free; conditions: time 10-90 min
[6] = Stability in mouse serum measured after 90 mins by radio-HPLC analysis; format: ADME, cell-free; conditions: 1.5 h
[7] = Drug metabolism in human serum assessed as decomposition mediated metabolite formation measured after 90 mins by radio-HPLC analysis; format: ADME, cell-free; conditions: 1.5 h
[8] = Drug accumulation in C57/BL6 mouse liver at 5 MBq, iv administered as bolus injection and measured upto 15 mins by imaging analysis; format: ADME, organism-based; conditions: in vivo, 0.25 h
[9] = Drug uptake in C57/BL6 mouse intestine at 5 MBq, iv administered as bolus injection and measured at 15 to 90 mins by imaging analysis; format: ADME, organism-based; conditions: in vivo, time 15-90 min
[10] = Drug uptake in C57/BL6 mouse kidney at 5 MBq, iv administered as bolus injection and measured for 90 mins by imaging analysis; format: ADME, organism-based; conditions: in vivo, 1.5 h
[11] = Drug uptake in C57/BL6 mouse urinary bladder at 5 MBq, iv administered as bolus injection and measured for 90 mins by imaging analysis; format: ADME, organism-based; conditions: in vivo, 1.5 h
[12] = Drug accumulation in C57/BL6 mouse heart at 5 MBq, iv administered as bolus injection and measured at 6 to 15 mins by imaging analysis; format: ADME, organism-based; conditions: in vivo, time 6-15 min
[13] = Drug accumulation in C57/BL6 mouse spleen at 5 MBq, iv administered as bolus injection and measured at 6 to 15 mins by imaging analysis; format: ADME, organism-based; conditions: in vivo, time 6-15 min
[14] = Drug accumulation in C57/BL6 mouse heart at 5 MBq, iv administered as bolus injection and measured at 15 to 90 mins by imaging analysis; format: ADME, organism-based; conditions: in vivo, time 15-90 min
[15] = Drug accumulation in C57/BL6 mouse spleen at 5 MBq, iv administered as bolus injection and measured at 15 to 90 mins by imaging analysis; format: ADME, organism-based; conditions: in vivo, time 15-90 min
[16] = Drug accumulation in C57/BL6 mouse lungs at 5 MBq, iv administered as bolus injection and measured at 0 to 5 mins by imaging analysis; format: ADME, organism-based, Lung; conditions: in vivo, time 0-5 min
[17] = Drug uptake in C57/BL6 mouse blood at 5 MBq, iv administered as bolus injection and measured after 90 mins by PET imaging analysis; format: ADME, organism-based; conditions: in vivo, 1.5 h
[18] = Drug uptake in C57/BL6 mouse blood at 5 MBq, iv administered as bolus injection and measured at 12 sec by PET imaging analysis; format: ADME, organism-based; conditions: in vivo, 12 s
[19] = Drug uptake in C57/BL6 mouse liver at 5 MBq, iv administered as bolus injection and measured at ~5 min by PET imaging analysis; format: ADME, organism-based; conditions: in vivo
[20] = Drug uptake in C57/BL6 mouse liver at 5 MBq, iv administered as bolus injection and measured at 90 min by PET imaging analysis; format: ADME, organism-based; conditions: in vivo, 1.5 h
[21] = Drug uptake in C57/BL6 mouse kidney at 5 MBq, iv administered as bolus injection and measured at 1.2 min by PET imaging analysis; format: ADME, organism-based; conditions: in vivo, 0.02 h
[22] = Drug uptake in C57/BL6 mouse kidney at 5 MBq, iv administered as bolus injection and measured at 90 min by PET imaging analysis; format: ADME, organism-based; conditions: in vivo, 1.5 h
[23] = Drug uptake in C57/BL6 mouse blood at 5 MBq, iv administered as bolus injection and measured within 24 sec by PET imaging analysis; format: ADME, organism-based; conditions: in vivo, 24 s
[24] = Drug uptake in C57/BL6 mouse lung at 5 MBq, iv administered as bolus injection and measured at 12 sec by PET imaging analysis; format: ADME, organism-based; conditions: in vivo, 12 s
[25] = Drug uptake in C57/BL6 mouse lung at 5 MBq, iv administered as bolus injection and measured within 4.5 min by PET imaging analysis; format: ADME, organism-based; conditions: in vivo, 0.075 h
[26] = Drug uptake in C57/BL6 mouse spleen at 5 MBq, iv administered as bolus injection and measured within 4.5 min by PET imaging analysis; format: ADME, organism-based; conditions: in vivo, 0.075 h
[27] = Drug uptake in C57/BL6 mouse spleen at 5 MBq, iv administered as bolus injection and measured after 90 min by PET imaging analysis; format: ADME, organism-based; conditions: in vivo, 1.5 h
[28] = Drug uptake in C57/BL6 mouse heart at 5 MBq, iv administered as bolus injection and measured at 24 sec by PET imaging analysis; format: ADME, organism-based; conditions: in vivo, 24 s
[29] = Drug uptake in C57/BL6 mouse heart at 5 MBq, iv administered as bolus injection and measured at 4.2 min by PET imaging analysis; format: ADME, organism-based; conditions: in vivo, 0.07 h
[30] = Drug uptake in C57/BL6 mouse heart at 5 MBq, iv administered as bolus injection and measured at 14.2 min by PET imaging analysis; format: ADME, organism-based; conditions: in vivo, 0.2367 h
[31] = Drug uptake in C57/BL6 mouse heart at 5 MBq, iv administered as bolus injection and measured at 90 min by PET imaging analysis; format: ADME, organism-based; conditions: in vivo, 1.5 h
[32] = Drug uptake in C57/BL6 mouse lymph node at 5 MBq, iv administered as bolus injection and measured at 60 min by PET imaging analysis; format: ADME, organism-based; conditions: in vivo, 1 h
[33] = Drug uptake in C57/BL6 mouse muscle tissue at 5 MBq, iv administered as bolus injection and measured at 60 min by PET imaging analysis; format: ADME, organism-based; conditions: in vivo, 1 h
[34] = Drug uptake in C57/BL6 mouse brain at 5 MBq, iv administered as bolus injection and measured at 90 min by PET imaging analysis; format: ADME, organism-based; conditions: in vivo, 1.5 h

CC(C)(C)C(=O)/C(=N\Nc1ccc(Cl)cc1)Nc1ccc([18F])cc1
logD at 0.05 h [1]: 1.55
Retention_time [2]: 15.9 min
Retention_time [3]: 4.5 min
Retention_time [4]: 16.9 min
Drug metabolism [5]: Metabolite_Detected
Stability [6]: Stable
Drug metabolism [7]: ~ 7%
Drug uptake [8]: Active
Drug uptake [9]: Active
Drug uptake [10]: Not Active
Drug uptake [11]: Not Active
Drug uptake [12]: Active
Drug uptake [13]: Active
Drug uptake [14]: Not Active
Drug uptake [15]: Not Active
Drug uptake [16]: Active
Drug uptake [17]: Not Active
Drug uptake [18]: 37.5 %ID/cm3
Drug uptake [19]: 41 %ID/cm3
Drug uptake [20]: 10 %ID/cm3
Drug uptake [21]: 8 %ID/cm3
Drug uptake [22]: 4 %ID/cm3
Drug uptake [23]: Not Active
Drug uptake [24]: 13 %ID/cm3
Drug uptake [25]: Not Active
Drug uptake [26]: 11 %ID/cm3
Drug uptake [27]: 3 %ID/cm3
Drug uptake [28]: 7 %ID/cm3
Drug uptake [29]: 5 %ID/cm3
Drug uptake [30]: 6 %ID/cm3
Drug uptake [31]: 3 %ID/cm3
Drug uptake [32]: 2.1 %ID/cm3
Drug uptake [33]: 1.9 %ID/cm3
Drug uptake [34]: 3.9 %ID/cm3
